Measurements published in patent US20260207618A1, “PYRIMIDINE CARBOXAMIDE COMPOUNDS” (Acrivon Therapeutics, Inc., priority 2022, published 2026).

Experiments:
[1] = test system: Cdk1 phosphorylated on tyrosine 15; test: High-content imaging of pCdk1 Y15 by immunofluorescence in ACHN cells; format: cell-based; settings: Homo sapiens, high-content imaging (IF), 4 h, 7 to 5000 nM, read-out: CDK1 Tyr15 Phosphorylation EC50 (IC50)
Method: ACHN renal cell carcinoma cell line (ATCC) was cultured in Minimum Essential Medium Eagle supplemented with 10% fetal calf serum (Sigma), 1% Penicillin-Streptomycin and 10 mM HEPES buffer (HyClone). Cell cultures were kept in a humidified incubator at 37° C. and 5% CO2. Cells were routinely tested for Mycoplasma contamination.
High-content imaging of ACHN renal cell carcinoma cells was used for quantification of CDK1 phosphorylated on tyrosine 15 by immunofluorescence (“IF”). 20 000 cells per well were seeded in tissue culture treated 96 well plates and treated with compounds at concentrations ranging from 7 to 5000 nM for 4 h. Cells were fixated for 15 minutes in 4% paraformaldehyde solution, washed in PBS and permeabilized using 0.2% Triton X-100. Blocking was performed for 1 h at RT using Blocker FL Fluorescent Blocking Buffer (Thermo Scientific), thereafter cells were incubated with primary antibody (rabbit anti-pCDK1 Y^15, #4539, Cell Signaling Technology) at 4° C. ON. Alexa Fluor Plus 647 labelled goat anti-rabbit (A32733. Thermo Scientific) was used as secondary antibody. After washing in PBS, nuclei were stained with DAPI solution for 10 min at RT, protected from light. Cells were imaged using an ImageXpress Pico automated imaging system and CellReporter Xpress software (Molecular Devices). The percentage cells with nuclear positivity for pCdk1 Y^15 compared to DMSO control was determined for each well and drug dose response curves and EC50 values were calculated and visualized using GraphPad Prism.

[2] = target: T1, recombinant human Wee1A kinase (Homo sapiens, UniProt P30291); test: LanthaScreen Europium (Eu) Kinase Binding Assay, Wee1A kinase (TR-FRET tracer displacement); settings: 30 nM tracer 178, 5 nM Wee1A kinase, 60 minutes at room temperature
T1 construct: full length Wee1A kinase was expressed by baculovirus in insect cells; purchased Invitrogen PV3817; host or cells: insect cells (baculovirus)
Excerpt: We used a LanthaScreen Europium (Eu) Kinase Binding Assay to determine the binding of provided compounds to Wee1A kinase. The assay utilizes an Alexa Fluor 647-labeled ATP competitive kinase tracer that binds to the ATP binding site of a GST-tagged Wee1A kinase, while a europium (Eu) labeled antibody binds to the GST tag. The proximity of fluorescently labeled kinase tracer and europium (Eu) donor fluorophore antibody leads to fluorescence resonance energy transfer (FRET) to the fluorescence label (acceptor) upon excitation of the Eu (donor). Displacement of tracer from the ATP-binding site by a test compound disturbs the proximity between both labels thus lowering the FRET.
This time resolved-FRET binding assay was performed in white 384-well low volume plates (Greiner, cat #784075), at room temperature in kinase buffer A (KBA; Invitrogen cat #PV3189), consisting of 50 mM HEPES-NaOH (pH 7.5), 0.01% Brij-35, 10 mM MgCl2, and 1 mM EGTA. 5 μl of compound (diluted in reaction buffer, to 1% DMSO) were added to various wells in the plate, followed by 5 μl each of recombinant human Wee1A kinase (full length Wee1A kinase was expressed by baculovirus in insect cells using a N-terminal GST tag (MW: 99.1 kDa) (Invitrogen cat #PV3817) and LanthaScreen Eu-anti-GST antibody (Invitrogen, cat #PV5594). After this, 5 μl of kinase tracer 178 (Invitrogen, cat #PV5593) was added to the plate and the plate was incubated for 60 minutes at room temperature. The final assay conditions in each well were: 30 nM tracer 178, 5 nM Wee1A kinase and 2 nM Eu-labeled antibody in total assay volume of 15 μl. An Envision 2104 (Perkin-Elmer) Plate Reader with the following time-resolve fluorescence setting was used for performing LanthaScreen kinase binding assay. • Excitation 320 nm (30 nm bandpass) • Kinase Tracer Emission 665 nm (10 nm bandpass) • LanthaScreen Eu-anti-Tag Antibody Emission 615 nm (10 nm bandpass) • Dichroic Mirror Instrument dependent • Delay Time 100 μs • Integration Time 200 μs
To calculate the emission ratio, the acceptor/tracer emission ([…]) was divided by the antibody/donor emission ([…]) and the average of duplicate measurement was used for calculations. Data plotting, analysis of binding, and curve fitting was done using Excel add-in XLfit version 5.5.0.5 (IDBS, Guildford, United Kingdom).

T1 sequence (P30291 whole entry): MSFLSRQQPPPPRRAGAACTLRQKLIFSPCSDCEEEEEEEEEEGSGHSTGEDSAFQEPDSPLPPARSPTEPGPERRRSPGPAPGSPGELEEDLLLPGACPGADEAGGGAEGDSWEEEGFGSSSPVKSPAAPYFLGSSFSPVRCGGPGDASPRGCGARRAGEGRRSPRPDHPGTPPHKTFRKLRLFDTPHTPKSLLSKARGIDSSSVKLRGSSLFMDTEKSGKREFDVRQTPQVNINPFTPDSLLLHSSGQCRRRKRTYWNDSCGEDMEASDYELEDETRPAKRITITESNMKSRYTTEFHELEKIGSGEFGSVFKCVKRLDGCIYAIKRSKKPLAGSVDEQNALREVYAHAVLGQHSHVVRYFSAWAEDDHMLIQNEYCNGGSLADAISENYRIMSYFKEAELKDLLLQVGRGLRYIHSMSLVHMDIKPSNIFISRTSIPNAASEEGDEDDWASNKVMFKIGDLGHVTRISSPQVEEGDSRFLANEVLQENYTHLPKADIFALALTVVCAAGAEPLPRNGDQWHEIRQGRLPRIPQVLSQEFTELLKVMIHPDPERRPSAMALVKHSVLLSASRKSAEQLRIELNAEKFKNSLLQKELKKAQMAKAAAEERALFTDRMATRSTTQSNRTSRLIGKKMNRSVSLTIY

Row | SMILES | EC50 [1] [µM] | IC50 [2] [µM] | Wee1A kinase Binding IC50 [2]
1 | COc1nc(Nc2ccc(OCCN3CCOCC3)c(C)c2)ncc1C(=O)Nc1c(Cl)ccc(O)c1C [Compound 151, N-(6-chloro-3-hydroxy-2-methylphenyl)-4-methoxy-2-((3-methyl-4-(2-morpholinoethoxy)phenyl)amino)pyrimidine-5-carboxamide] | > 1 |  | 
2 | COc1nc(Nc2ccc(C3CCN(C)CC3)c(C)c2)ncc1C(=O)Nc1c(Cl)cccc1C#N [Compound 137, N-(2-chloro-6-cyanophenyl)-4-methoxy-2-((3-methyl-4-(1-methylpiperidin-4-yl)phenyl)amino)pyrimidine-5-carboxamide] | > 1 | 0.01 to 0.1 | 
3 | COc1nc(Nc2ccc([C@H]3CCCN(C)CC3)c(C)c2)ncc1C(=O)Nc1c(Cl)cccc1Br [Compound 208] |  | ≤ 0.01 | 
4 | CCOc1cc(Nc2ncc(C(=O)Nc3c(Cl)cccc3Br)c(OC)n2)ccc1C1CCN(C)CC1 [Compound 217, N-(2-bromo-6-chlorophenyl)-2-((3-ethoxy-4-(1-methylpiperidin-4-yl)phenyl)amino)-4-methoxypyrimidine-5-carboxamide] | 0.1 to 0.5 | ≤ 0.01 | 
5 | COc1nc(Nc2cnn(C[C@H]3CCCN3)c2)ncc1C(=O)Nc1c(Cl)cccc1Cl [Compound 159] |  | 0.01 to 0.1 | 
6 | COc1nc(Nc2ccc(OC3CCN(C)CC3)c(C)c2)ncc1C(=O)Nc1c(Cl)cccc1Br [Compound 220, N-(2-bromo-6-chlorophenyl)-4-methoxy-2-((3-methyl-4-((1-methylpiperidin-4-yl)oxy)phenyl)amino)pyrimidine-5-carboxamide] | 0.1 to 0.5 | ≤ 0.01 | 
7 | COc1nc(Nc2ccc(OCCN3CCOCC3)c(C)c2)ncc1C(=O)Nc1c(Cl)cccc1Cl [Compound 144, N-(2,6-dichlorophenyl)-4-methoxy-2-((3-methyl-4-(2-morpholinoethoxy)phenyl)amino)pyrimidine-5-carboxamide] | > 1 | ≤ 0.01 | 
8 | C#Cc1cccc(Br)c1NC(=O)c1cnc(Nc2ccc(C3CCNCC3)c(C)c2)nc1OC [Compound 184, N-(2-bromo-6-ethynylphenyl)-4-methoxy-2-((3-methyl-4-(piperidin-4-yl)phenyl)amino)pyrimidine-5-carboxamide] | 0.1 to 0.5 | ≤ 0.01 | 
9 | COc1nc(Nc2ccc(N3CCNCC3)c(C)c2)ncc1C(=O)Nc1c(Cl)cccc1Cl [Compound 162] | 0.1 to 0.5 | ≤ 0.01 | 
10 | COc1nc(Nc2ccc(O[C@@H]3CCN(C)C3)c(C)c2)ncc1C(=O)Nc1c(Cl)cccc1Cl [Compound 146, (R)—N-(2,6-dichlorophenyl)-4-methoxy-2-((3-methyl-4-((1-methylpyrrolidin-3-yl)oxy)phenyl)amino)pyrimidine-5-carboxamide] | ≤ 0.1 | ≤ 0.01 | 
11 | COc1nc(Nc2ccc([C@@H]3CCCNC3)c(C)c2)ncc1C(=O)Nc1c(Cl)cccc1Br [Compound 199, (S)—N-(2-bromo-6-chlorophenyl)-4-methoxy-2-((3-methyl-4-(piperidin-3-yl)phenyl)amino)pyrimidine-5-carboxamide] | 0.1 to 0.5 | ≤ 0.01 | 
12 | COc1nc(Nc2ccc(C3CCN(C)CC3)c(C)c2)ncc1C(=O)Nc1c(C)ccnc1Cl [Compound 117, N-(2-chloro-4-methylpyridin-3-yl)-4-methoxy-2-{[3-methyl-4-(1-methylpiperidin-4-yl)phenyl]amino}pyrimidine-5-carboxamide] |  | 0.01 to 0.1 | 
13 | COc1nc(Nc2ccc(C3CCN(C)CC3)c(C)c2)ncc1C(=O)Nc1c(C)ccnc1C [Compound 112, N-(2,4-dimethylpyridin-3-yl)-4-methoxy-2-{[3-methyl-4-(1-methylpiperidin-4-yl)phenyl]amino}pyrimidine-5-carboxamide] |  | 0.01 to 0.1 | 
14 | COc1nc(Nc2cnn(C[C@@H]3CCCN3)c2)ncc1C(=O)Nc1c(Cl)cccc1Cl [Compound 160] |  | 0.01 to 0.1 | 
15 | COc1nc(Nc2ccc(C3CCN(C)CC3)c(C)c2)ncc1C(=O)Nc1cccc(O)c1 [Compound 118] |  | 0.01 to 0.1 | 
16 | COc1nc(Nc2ccc(-c3ccn(C)c3)c(C)c2)ncc1C(=O)Nc1c(Cl)cccc1Br [Compound 191, N-(2-bromo-6-chlorophenyl)-4-methoxy-2-((3-methyl-4-(1-methyl-1H-pyrrol-3-yl)phenyl)amino)pyrimidine-5-carboxamide] |  | 0.01 to 0.1 | 
17 | COc1nc(Nc2ccc(C3CCN(C)CC3)c(C)c2)ncc1C(=O)Nc1cnccc1Cl [Compound 139, N-(4-chloropyridin-3-yl)-4-methoxy-2-((3-methyl-4-(1-methylpiperidin-4-yl)phenyl)amino)pyrimidine-5-carboxamide] |  | 0.01 to 0.1 | 
18 | COc1nc(Nc2ccc(C3CCN(C)CC3)c(C)c2)ncc1C(=O)Nc1cc(C#N)ccc1Cl [Compound 131, N-(2-chloro-5-cyanophenyl)-4-methoxy-2-((3-methyl-4-(1-methylpiperidin-4-yl)phenyl)amino)pyrimidine-5-carboxamide] |  |  | C (IC50 greater than 100 nM but less than or equal to 5.00 nM)
19 | CN1CCN(c2ccc(Nc3ncc(C(=O)Nc4c(Cl)cccc4Cl)c(OCC(F)(F)F)n3)cc2)CC1 [Compound 103, N-(2,6-dichlorophenyl)-2-{[4-(4-methylpiperazin-1-yl)phenyl]amino}-4-(2,2,2-trifluoroethoxy)pyrimidine-5-carboxamide] |  | 0.01 to 0.1 | 
20 | C#Cc1ccccc1NC(=O)c1cnc(Nc2ccc(C3CCN(C)CC3)c(C)c2)nc1OC [Compound 126, N-(2-ethynylphenyl)-4-methoxy-2-((3-methyl-4-(1-methylpiperidin-4-yl)phenyl)amino)pyrimidine-5-carboxamide] |  | 0.01 to 0.1 | 
21 | COc1nc(Nc2ccc(C3CCN(C)CC3)c(C)c2)ncc1C(=O)Nc1ccccc1C#N [Compound 115, N-(2-cyanophenyl)-4-methoxy-2-((3-methyl-4-(1-methylpiperidin-4-yl)phenyl)amino)pyrimidine-5-carboxamide] |  | 0.01 to 0.1 | 
22 | CN(C)CCCOc1nc(Nc2ccc(N3CCN(C)CC3)cc2)ncc1C(=O)Nc1c(Cl)cccc1Cl [Compound 124, N-(2,6-dichlorophenyl)-4-(3-(dimethylamino)propoxy)-2-((4-(4-methylpiperazin-1-yl)phenyl)amino)pyrimidine-5-carboxamide] |  |  | C (IC50 greater than 100 nM but less than or equal to 5.00 nM)
23 | COc1nc(Nc2ccc(C3CCN(C)CC3)c(C)c2)ncc1C(=O)Nc1cc([N+](=O)[O-])ccc1C [Compound 170] |  |  | C (IC50 greater than 100 nM but less than or equal to 5.00 nM)
24 | COc1nc(Nc2ccc(C3CCN(C)CC3)c(C)c2)ncc1C(=O)Nc1cc(NC(C)=O)ccc1C [Compound 169] |  |  | C (IC50 greater than 100 nM but less than or equal to 5.00 nM)
25 | COc1nc(Nc2ccc(C3CCN(C)CC3)c(C)c2)ncc1C(=O)Nc1ccccc1Cl [Compound 109, N-(2-chlorophenyl)-4-methoxy-2-((3-methyl-4-(1-methylpiperidin-4-yl)phenyl)amino)pyrimidine-5-carboxamide] |  | 0.01 to 0.1 | 
26 | COc1nc(Nc2ccc(C(=O)N3CCN(C)CC3)c(C)c2)ncc1C(=O)Nc1c(Cl)cccc1Cl [Compound 168] |  | 0.01 to 0.1 | 
27 | COc1nc(Nc2ccc(C3CCN(C)CC3)nc2)ncc1C(=O)Nc1c(Cl)cccc1Cl [Compound 183, N-2,6-dichlorophenyl-4-methoxy-2-[6-(1-methyl-4-piperidyl)-3-pyridylamino]-5-pyrimidinecarboxamide] |  | 0.01 to 0.1 | 
